Source: patent US4853410A, “Hydroxyacetic acid derivatives for the treatment of diabetic complications” (Pfizer Inc., priority 1987, dated 1989)
Read-outs that look alike come from different tables or passages of the source. One block for each compound: values may come before it.

Target: T1, aldose reductase enzyme (Homo sapiens, UniProt P15121)
T1 construct: partially purified aldose reductase enzyme obtained from human placenta; from tissue; host or cells: human placenta
Assay: in vitro inhibition of aldose reductase enzyme activity (procedure of U.S. Pat. No. 3,821,383, based on Hayman et al.)
Type: biochemical
Source text: The substrate employed is partially purified aldose reductase enzyme obtained from human placenta.

- IC50 (read-out: IC50, inhibition concentration calculated to show 50% inhibition of enzyme activity, partially purified aldose reductase from human placenta): ~860 nM
Structure (SMILES): C[C@@H]1C[C@@](O)(CC(=O)O)c2cc(Cl)ccc2O1 (relative stereo) [Example 15, 6-Chloro-c-4-hydroxy-r-2-methylchroman-4-acetic Acid]

- IC50: ~51 nM
Structure (SMILES): C[C@@H]1C[C@@](O)(CC(=O)O)c2cc([N+](=O)[O-])c(Cl)cc2O1 (relative stereo) [Example 82, 7-Chloro-6-nitro-c-4-hydroxy-r-2-methylchroman-4-acetic acid]

- inhibition at 10 µM (at 10^-5 M, partially purified aldose reductase from human placenta, read-out: percent inhibition of enzyme activity): 37%
Structure (SMILES): C[C@@H]1C[C@@](O)(CC(=O)O)c2cc(Cl)c(Cl)cc2S1(=O)=O (relative stereo) [Example 113, 6,7-Dichloro-c-4-hydroxy-r-2-methyl-3,4-dihydro-2H-1-thianaphthalene-4-acetic Acid 1,1-Dioxide]
